Data reported in patent US20090136482A1, “DRUG TARGET PROTEIN AND TARGET GENE, AND SCREENING METHOD” (REVERSE PROTEOMICS RESEARCH INSTITUTE CO., LTD., priority 2005, published 2009).
Each block holds one compound with its values, some of them ahead of it.

Legend:
FLJ10368-derived protein = molecular target: T1, FLJ10368-derived protein (Homo sapiens, UniProt Q9NUX5); assay: Biacore S51 surface plasmon resonance interaction analysis with FLJ10368-derived protein; type: binding
T1 construct: fused on or other part: N-terminal histidine tag and FLAG tag, with Gateway linker residues
T1 sequence (Q9NUX5 1-634): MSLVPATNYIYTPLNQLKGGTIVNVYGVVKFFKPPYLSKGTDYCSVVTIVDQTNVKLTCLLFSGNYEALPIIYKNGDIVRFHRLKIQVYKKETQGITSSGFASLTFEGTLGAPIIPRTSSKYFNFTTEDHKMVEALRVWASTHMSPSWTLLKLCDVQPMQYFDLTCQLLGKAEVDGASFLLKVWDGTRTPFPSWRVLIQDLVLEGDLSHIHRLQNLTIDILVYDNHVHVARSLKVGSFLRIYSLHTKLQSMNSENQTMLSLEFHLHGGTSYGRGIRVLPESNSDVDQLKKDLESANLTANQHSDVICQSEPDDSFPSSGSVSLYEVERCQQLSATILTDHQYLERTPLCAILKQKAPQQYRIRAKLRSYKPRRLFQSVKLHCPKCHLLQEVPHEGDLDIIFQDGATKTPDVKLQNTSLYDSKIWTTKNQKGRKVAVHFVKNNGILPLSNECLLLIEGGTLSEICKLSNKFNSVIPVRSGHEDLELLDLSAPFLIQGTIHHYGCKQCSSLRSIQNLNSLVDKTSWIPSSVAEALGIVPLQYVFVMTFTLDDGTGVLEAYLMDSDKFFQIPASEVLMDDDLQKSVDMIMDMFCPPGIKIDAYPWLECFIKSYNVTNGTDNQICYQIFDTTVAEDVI
Experimental: (§1) The obtained plasmids were subjected to phenol/chloroform treatment and the inactivation treatment of RNase according to the PROTEIOS (TOYOBO) protocol to give purified expression plasmids.
(§2) The surface of a CM5 sensor chip for S51 (commercially available from Biacore) was converted to NTA using 1 M EDC, 1.33 M NHS, and 16 mg/ml AB-NTA (pH 9.2) to give an NTA sensor chip for S51. […] The immobilization was performed by sequentially injecting 0.5 M NiCl2, 0.4 M EDC, […], a ligand (protein) solution, and 1 M ethanolamine (pH 8.5) into the passage system of Biacore S51. […] For the correction (solvent correction) of the effect of DMSO contained in the compound solutions and the running buffer, the same solutions as the running buffer containing 3.8 to 5.1% DMSO (8 points) were prepared to perform correction based on the measurement results of these solutions.

FLJ12514-derived protein = FLJ12514-derived protein (Homo sapiens, UniProt Q9H9A5); assay: Biacore S51 surface plasmon resonance interaction analysis with FLJ12514-derived protein; type: binding; settings: for interaction with the protein (dose-dependent binding amount, saturation at high doses): FLJ12514-derived protein, Biacore S51
Experimental: as §1, §2

FLJ12389-derived protein = molecular target: T2, FLJ12389-derived protein (Homo sapiens, UniProt Q86V21); assay: Biacore S51 surface plasmon resonance interaction analysis with FLJ12389-derived protein; type: binding
T2 sequence (Q86V21 1-672): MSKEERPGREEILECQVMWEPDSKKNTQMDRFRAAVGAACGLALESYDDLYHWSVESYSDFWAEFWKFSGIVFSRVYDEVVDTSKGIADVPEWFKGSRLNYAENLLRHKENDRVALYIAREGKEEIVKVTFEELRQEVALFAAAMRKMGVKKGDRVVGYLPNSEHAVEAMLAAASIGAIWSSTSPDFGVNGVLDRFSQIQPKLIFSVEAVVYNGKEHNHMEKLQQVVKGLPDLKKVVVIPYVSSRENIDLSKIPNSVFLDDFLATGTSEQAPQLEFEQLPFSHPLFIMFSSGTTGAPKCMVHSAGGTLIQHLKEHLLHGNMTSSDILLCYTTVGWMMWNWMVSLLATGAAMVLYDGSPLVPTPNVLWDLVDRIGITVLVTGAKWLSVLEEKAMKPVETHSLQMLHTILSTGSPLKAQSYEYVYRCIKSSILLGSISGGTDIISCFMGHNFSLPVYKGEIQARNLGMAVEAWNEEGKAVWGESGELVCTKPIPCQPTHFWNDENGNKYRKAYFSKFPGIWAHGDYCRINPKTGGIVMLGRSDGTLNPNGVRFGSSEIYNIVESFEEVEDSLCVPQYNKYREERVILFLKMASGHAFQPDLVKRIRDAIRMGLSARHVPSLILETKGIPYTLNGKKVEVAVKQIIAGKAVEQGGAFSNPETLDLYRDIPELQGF
Experimental: as §1, §2

FLJ31146-derived protein = molecular target: T3, FLJ31146-derived protein (Homo sapiens, UniProt Q9BSE4); assay: Biacore S51 surface plasmon resonance interaction analysis with FLJ31146-derived protein; type: binding
T3 construct: fused on or other part: N-terminal histidine tag and FLAG tag, with Gateway linker residues
T3 sequence (Q9BSE4 1-406): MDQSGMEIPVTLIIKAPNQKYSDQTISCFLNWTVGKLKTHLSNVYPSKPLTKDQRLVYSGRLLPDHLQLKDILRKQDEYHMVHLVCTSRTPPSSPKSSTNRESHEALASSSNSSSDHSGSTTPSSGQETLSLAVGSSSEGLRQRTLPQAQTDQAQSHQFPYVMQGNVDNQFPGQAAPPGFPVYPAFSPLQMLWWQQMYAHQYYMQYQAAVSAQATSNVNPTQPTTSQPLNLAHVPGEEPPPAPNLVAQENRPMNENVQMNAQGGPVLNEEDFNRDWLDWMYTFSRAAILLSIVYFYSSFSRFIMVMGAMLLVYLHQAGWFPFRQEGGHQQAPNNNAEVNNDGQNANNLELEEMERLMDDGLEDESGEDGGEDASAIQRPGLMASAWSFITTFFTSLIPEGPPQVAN
Experimental: as §1, §2

FLJ12502-derived protein = molecular target: T4, FLJ12502-derived protein (Homo sapiens, UniProt Q7Z3D6); assay: Biacore S51 surface plasmon resonance interaction analysis with FLJ12502-derived protein
T4 sequence (Q7Z3D6 1-616 isoform Q7Z3D6-1): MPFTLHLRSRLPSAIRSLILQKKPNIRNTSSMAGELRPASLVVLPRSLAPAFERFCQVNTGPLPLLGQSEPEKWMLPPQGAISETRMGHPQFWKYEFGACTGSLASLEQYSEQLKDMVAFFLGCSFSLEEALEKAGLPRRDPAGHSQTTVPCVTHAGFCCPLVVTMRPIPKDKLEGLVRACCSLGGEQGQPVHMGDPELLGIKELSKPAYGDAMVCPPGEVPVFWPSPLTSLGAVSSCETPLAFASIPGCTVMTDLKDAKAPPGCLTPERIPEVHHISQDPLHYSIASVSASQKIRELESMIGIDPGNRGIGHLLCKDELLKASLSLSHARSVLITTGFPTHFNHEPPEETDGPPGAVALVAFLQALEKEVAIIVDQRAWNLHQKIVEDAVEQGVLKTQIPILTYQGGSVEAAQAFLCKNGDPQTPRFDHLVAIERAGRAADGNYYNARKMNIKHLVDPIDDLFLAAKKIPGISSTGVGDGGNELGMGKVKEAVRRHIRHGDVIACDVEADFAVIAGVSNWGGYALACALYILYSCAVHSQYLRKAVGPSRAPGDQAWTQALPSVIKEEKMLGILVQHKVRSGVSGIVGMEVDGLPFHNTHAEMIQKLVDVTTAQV

FLJ14583-derived protein = molecular target: T5, FLJ14583-derived protein (Homo sapiens, UniProt Q12816); assay: Biacore S51 surface plasmon resonance interaction analysis with FLJ14583-derived protein; type: binding
T5 sequence (Q12816 1-1431): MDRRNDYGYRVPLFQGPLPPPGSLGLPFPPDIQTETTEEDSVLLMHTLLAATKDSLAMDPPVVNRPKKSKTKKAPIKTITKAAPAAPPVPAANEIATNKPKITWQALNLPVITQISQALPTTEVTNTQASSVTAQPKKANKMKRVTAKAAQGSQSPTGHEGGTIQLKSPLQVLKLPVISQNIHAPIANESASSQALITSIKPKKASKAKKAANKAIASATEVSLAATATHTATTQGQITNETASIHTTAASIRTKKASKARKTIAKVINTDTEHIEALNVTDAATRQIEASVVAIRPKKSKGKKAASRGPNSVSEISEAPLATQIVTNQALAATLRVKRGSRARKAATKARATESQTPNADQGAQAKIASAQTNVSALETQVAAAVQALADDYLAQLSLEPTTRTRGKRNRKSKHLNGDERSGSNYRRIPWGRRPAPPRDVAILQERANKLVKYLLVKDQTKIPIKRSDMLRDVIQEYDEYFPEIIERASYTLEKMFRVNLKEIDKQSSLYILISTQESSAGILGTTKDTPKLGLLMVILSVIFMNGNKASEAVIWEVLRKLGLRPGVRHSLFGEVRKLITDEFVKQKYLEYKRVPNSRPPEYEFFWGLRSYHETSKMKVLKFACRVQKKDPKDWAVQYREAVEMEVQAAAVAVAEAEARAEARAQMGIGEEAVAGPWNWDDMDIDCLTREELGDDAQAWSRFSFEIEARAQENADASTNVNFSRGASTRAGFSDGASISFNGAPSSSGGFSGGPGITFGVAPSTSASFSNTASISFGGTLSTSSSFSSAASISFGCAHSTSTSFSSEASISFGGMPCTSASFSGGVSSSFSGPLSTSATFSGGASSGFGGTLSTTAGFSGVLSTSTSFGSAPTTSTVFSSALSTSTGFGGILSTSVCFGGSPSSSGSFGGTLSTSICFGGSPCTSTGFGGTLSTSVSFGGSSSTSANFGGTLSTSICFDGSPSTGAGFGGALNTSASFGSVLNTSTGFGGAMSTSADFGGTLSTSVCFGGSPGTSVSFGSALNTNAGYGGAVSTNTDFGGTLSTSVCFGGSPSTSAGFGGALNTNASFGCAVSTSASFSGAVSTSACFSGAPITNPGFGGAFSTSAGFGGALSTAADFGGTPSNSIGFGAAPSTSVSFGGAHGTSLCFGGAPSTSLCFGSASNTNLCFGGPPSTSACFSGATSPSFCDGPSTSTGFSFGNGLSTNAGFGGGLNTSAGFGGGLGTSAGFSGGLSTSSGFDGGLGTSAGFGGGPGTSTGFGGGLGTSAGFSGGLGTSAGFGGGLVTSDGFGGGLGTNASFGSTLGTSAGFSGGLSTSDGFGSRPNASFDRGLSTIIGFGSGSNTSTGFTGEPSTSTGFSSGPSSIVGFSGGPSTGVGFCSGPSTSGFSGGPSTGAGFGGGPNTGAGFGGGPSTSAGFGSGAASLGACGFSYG
Experimental: as §1, §2

Chain of FLJ12514-derived protein (Q9H9A5 whole entry): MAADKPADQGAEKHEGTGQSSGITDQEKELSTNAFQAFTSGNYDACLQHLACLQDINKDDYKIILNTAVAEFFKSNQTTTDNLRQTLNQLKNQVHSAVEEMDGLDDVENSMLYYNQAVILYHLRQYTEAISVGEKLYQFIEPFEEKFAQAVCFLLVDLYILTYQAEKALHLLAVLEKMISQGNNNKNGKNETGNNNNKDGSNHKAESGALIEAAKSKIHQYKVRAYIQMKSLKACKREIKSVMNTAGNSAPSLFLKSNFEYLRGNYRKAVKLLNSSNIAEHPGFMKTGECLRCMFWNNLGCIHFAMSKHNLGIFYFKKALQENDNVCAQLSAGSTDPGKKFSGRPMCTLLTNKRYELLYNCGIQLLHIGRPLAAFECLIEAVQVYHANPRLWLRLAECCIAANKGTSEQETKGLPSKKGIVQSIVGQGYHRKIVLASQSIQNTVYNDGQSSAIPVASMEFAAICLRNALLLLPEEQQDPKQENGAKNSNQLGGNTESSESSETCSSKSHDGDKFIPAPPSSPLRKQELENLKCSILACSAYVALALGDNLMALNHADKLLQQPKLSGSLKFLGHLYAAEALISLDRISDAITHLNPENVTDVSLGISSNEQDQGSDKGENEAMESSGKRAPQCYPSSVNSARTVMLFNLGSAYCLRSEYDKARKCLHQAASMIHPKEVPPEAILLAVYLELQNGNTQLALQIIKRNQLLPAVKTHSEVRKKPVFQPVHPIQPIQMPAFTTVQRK

interaction with the protein (dose-dependent binding amount, saturation at high doses) (FLJ10368-derived protein): specifically interact | interaction with the protein (dose-dependent binding amount, saturation at high doses) (FLJ12514-derived protein): specifically interact | interaction with the protein (dose-dependent binding amount, saturation at high doses) (FLJ12389-derived protein): specifically interact
SMILES: c1ccc2[nH]c(-c3cscn3)nc2c1 [thiabendazole]

SMILES: CC1=C(C(=O)O)N2C(=O)[C@@H](NC(=O)[C@H](N)c3ccccc3)[C@H]2SC1 [cephalexin]
interaction with the protein (dose-dependent binding amount, saturation at high doses) (FLJ31146-derived protein): specifically interact | Kd (FLJ12502-derived protein): 5.98 µM | interaction with the protein (dose-dependent binding amount, saturation at high doses) (FLJ12502-derived protein; FLJ12502-derived protein, Biacore S51): specifically interact | interaction with the protein (dose-dependent binding amount, saturation at high doses) (FLJ14583-derived protein): specifically interact

SMILES: CC[C@@]1(O)C[C@H](O[C@H]2C[C@H](N(C)C)[C@H](O[C@H]3C[C@H](O)[C@H](O[C@H]4CCC(=O)[C@H](C)O4)[C@H](C)O3)[C@H](C)O2)c2c(cc3c(c2O)C(=O)c2c(O)cccc2C3=O)[C@H]1C(=O)OC [aclarubicin]
Kd (FLJ12514-derived protein): 6.11 µM | interaction with the protein (dose-dependent binding amount, saturation at high doses) (FLJ12514-derived protein): specifically interact

interaction with the protein (dose-dependent binding amount, saturation at high doses) (FLJ10368-derived protein): specifically interact
SMILES: COC(=O)[C@H]1[C@H]2C[C@@H]3c4[nH]c5cc(OC)ccc5c4CCN3C[C@H]2C[C@@H](OC(=O)c2cc(OC)c(OC)c(OC)c2)[C@@H]1OC [reserpine]
